Assay results published in patent US4906661A, “Esters of aryloxypropanolamine derivatives” (E. I. Du Pont de Nemours and Company, priority 1989, dated 1990).
Values joined by “and” are separate entries in the source; they are usually repeats but may differ in a detail not shown here. Equal entries are not always repeated.

Experiments:
[1] = biological target: β1 receptors, guinea pig right atria (Cavia porcellus, UniProt H0W3H1); test: cell-based; settings: Table I; guinea pig right atria, vs isoproterenol; -log KB; read-out: PA2 Rt. Atria (converted)
Description: Each tissue was suspended between a fixed glass rod and a Statham Universal Transducer connected to a Beckman recorder. Atria were allowed to beat spontaneously under a loading tension of approximately 0.5 gm. Intrinsic depressant or stimulant activity was determined for each compound by progressively increasing concentrations in the tissue baths at 60-minute intervals. Tissues were not washed between increments. The maximum concentration showing little or no cardiodepressant activity was chosen for blockade experiments. Changes in rate in response to isoproterenol, a standard β-receptor agonist, were measured in the absence and presence of test compounds. Spiral strips of guinea pig trachea were suspended under 5 gm resting tension and incubated with phentolamine, tropolone and cocaine. Active tension was generated by addition of carbachol (3.0×10^-7 M) and decreases in tension in response to isoproterenol were quantitated. Cumulative concentration-response curves were produced with isoproterenol both before and after 60-minute incubation of test compounds with atria and trachea. […] The blocking potency of test compounds was estimated by computing pA2 values (-log KB) by the method of Furchgott, the Pharmacological Differentiation of Adrenergic Receptors, Ann. […] The degree of cardioselectivity was estimated from the ratio, KB trachea/KB atria (10^(pA2 atria-pA2 trachea)). A ratio greater than one indicates cardioselectivity. Test drugs were dissolved in distilled water and added to the bath (30 ml) in a volume of 10 or 100 μl.

[2] = test system: heart rate response to isoproterenol; test: Duration and potency of beta-blocking action in vivo, 3-hour infusion in anesthetized dogs, isoproterenol challenge; design: species or system dog; settings: Table II; for Recovery Time 50%: 50% recovery from β-blockade after termination of infusion; for Recovery Time 80%: 80% recovery from β-blockade after termination of infusion; for % I, percent inhibition of heart rate response to isoproterenol: end of 3-hour infusion, isoproterenol 0.5 μg/kg
Description: The duration of β-blockade was determined In vivo using pentobarbital-anesthetized dogs instrumented for measurement of heart rate using a Beckman cardiotachometer triggered electronically by a phasic aortic blood pressure signal. Both vagus nerves were served in the cervical region and the animals were mechanically ventilated. The experimental design used employed a 3-hour infusion of test compound. Bolus doses of isoproterenol (0.5 μg/kg) were used to assess the degree of β-blockade and recovery from β-blockade after […] of the infusion. The doses were spaced at 10-minute intervals and were given before, during and following the infusion of test compounds. The infusion rate was adjusted so that at the end of the 3-hour infusion period the degree of isoproterenol inhibition averaged about 50% of control. Following termination of blocker infusion, percent recovery from β-blockade was computed and the time associated with 80% recovery estimated.
^c Time in minutes for 50% recovery from 50% blockade levels after 3
Infusions of drug. Number of experiments is equal to or greater than thre
for each compound unless noted otherwise. Tabulated data are mean values
^c The betablocking activities were evaluated Invivo in a canine
model. The betablocker was infused in the animal for 3 hours with the dos
adjusted to give approximately 50%. blockage of the Isoproternolinduced
tachycardia. The infusion was then terminated and the time required for
80% recovery of blockade was recorded as duration of action of the
compound. The amount of drug infused during the 3 hours was averaged and
expressed as potency in ug/kg/min.

β1 receptors, guinea pig right atria, sequence (H0W3H1 1-470): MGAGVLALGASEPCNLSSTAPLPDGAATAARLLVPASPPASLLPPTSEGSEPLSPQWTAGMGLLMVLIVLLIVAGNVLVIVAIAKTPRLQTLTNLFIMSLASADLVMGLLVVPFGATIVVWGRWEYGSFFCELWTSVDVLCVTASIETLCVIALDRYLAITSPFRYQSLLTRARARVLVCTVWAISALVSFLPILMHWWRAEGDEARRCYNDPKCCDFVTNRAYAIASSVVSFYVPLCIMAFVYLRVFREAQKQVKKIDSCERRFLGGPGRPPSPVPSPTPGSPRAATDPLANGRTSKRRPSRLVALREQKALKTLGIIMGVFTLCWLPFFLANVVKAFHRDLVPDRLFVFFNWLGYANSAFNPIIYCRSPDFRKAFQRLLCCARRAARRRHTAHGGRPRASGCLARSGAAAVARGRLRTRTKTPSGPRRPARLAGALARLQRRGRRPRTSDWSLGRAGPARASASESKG

Kb [1]	SMILES	Recovery Time 50% [2]	Recovery Time 80% [2]	% I, percent inhibition of heart rate response to isoproterenol [2]
7.94 nM	COC(=O)c1ccccc1OCC(O)CNCCNC(=O)C(C)C (stereo not drawn) [II, Methyl 2-[2-Hydroxy-3-[N-[2-(2-methylpropionamido)ethyl]amino]propoxy]benzoate]	7 ± 1 min	17 ± 1 min	59 ± 2%
5.01 nM	COC(=O)c1ccccc1OCC(O)CNCCNC(=O)Cc1ccccc1 (stereo not drawn) [III, Methyl 2-[2-Hydroxy-3-[N-[2-(phenylacetamido)ethyl]amino]propoxy]benzoate]	20 min and 19 min	40 min and 45 min	57% and 60%
50.1 nM	COC(=O)c1ccccc1OCC(O)CNCCNC(C)=O (stereo not drawn) [Example I, Methyl 2-[2-Hydroxy-3-[N-2(-acetamidoethyl)amino]propoxy]benzoate]	8 ± 1 min	18 ± 1 min	54 ± 2%
